# Measurements: PMC11345829, “Discovery of Potent Isoquinolinequinone N-Oxides to Overcome Cancer Multidrug Resistance” (Journal of Medicinal Chemistry, 2024)
# Assays:
# [1] = tested on: NCI-H460; assay: SRB cell growth inhibition assay; format: cell-based; settings: Homo sapiens, 48 h, NSCLC sensitive, mean ± SEM
# Excerpt: (§1) Taking into consideration the promising results of preliminary NCI screening, nine compounds (1, 2, 3, 4, 5, 20, 23, 24, 25) were selected for further screening in two counterpart pairs of sensitive and MDR cell lines. […] Two distinct pairs of counterpart drug-sensitive and MDR human tumor cell lines were used, namely the non-small lung cancer (NSCLC) NCI-H460 (same cell line as in the NCI screen) and its MDR counterpart cell line NCI-H460/R and the colorectal cancer DLD1 and its MDR counterpart cell line DLD1-TxR (Table 3). The screening was performed using the SRB assay, and the GI50 for each compound was determined by interpolation on the attained concentration−response curves and compared with NCI60 screening data (SI, Figures S62−S63; Table S21).
# (§2) Two pairs of drug-sensitive and multidrug-resistant (MDR) cell lines from human nonsmall cell lung cancer (NSCLC), NCI-H460 and NCI-H460/R, and colorectal cancer, DLD1 and DLD1-TxR, kindly provided by Dr M. Pešić (Belgrade, Serbia), were used to evaluate the growth inhibition potential of the compounds 1, 2, 3, 4, 5, 20, 23, 24, an 25.[76],[77] Additionally, growth inhibition assays were performed with compound 25 on two other NSCLC cell lines, A549 and NCI-H322, obtained from the American Type Culture Collection (ATCC) and the European Collection of Authenticated Cell Cultures, respectively. The A549 cell line was maintained in Dulbecco’s Modified Eagle Medium (DMEM) supplemented with 4.5 g/L Glucose with UltraGlutamine with sodium pyruvate (Lonza, Basel Stücki, Switzerland), enriched with 10% fetal bovine serum (FBS; Biowest, Nuaillé, France). The lung fibroblast MRC-5 cell line and the remaining NSCLC and colorectal cancer cell lines were cultured in Roswell Park Memorial Institute (RPMI) 1640 (with stable glutamine and 25 mM HEPES) medium (Biowest), supplemented with 10% fetal bovine serum. […] For the sulforhodamine B (SRB) and 3D cell culture assays, the media were supplemented with 5% FBS. The remaining experiments were performed with medium supplemented with 10% FBS.
# (§3) Cells were seeded at a previously determined optimal cell concentration (5.0 × 10^4 cells/mL for NSCLC cells and the nontumorigenic MRC-5 cell line and 1.0 × 10^5 cells/mL for colorectal cancer cells) and incubated at 37 °C for 24 h. […] The SRB assay was performed as previously described.[78],[79] Briefly, after fixing cells with 10% (w/v) ice-cold trichloroacetic acid (Merck Life Science), the proteins were stained with 0.4% of SRB (Merck Life Science) in acetic acid (Merck Life Science). Following washing steps in acetic acid, the bound dye was solubilized with 10 mM Tris base solution (Merck Life Science). Absorbance was measured at 510 nm in a multiplate reader (Synergy Mx, Biotek Instruments Inc., Winooski, Vermont, USA) using the Gen5 software (Biotek Instruments Inc.).
# [2] = tested on: DLD1; assay: SRB cell growth inhibition assay; format: cell-based; settings: Homo sapiens, DLD-1, 48 h, colorectal cancer sensitive, mean ± SEM
# Excerpt: as §1, §2, §3
# [3] = tested on: DLD1-TxR; assay: SRB cell growth inhibition assay; format: cell-based, human; settings: for selectivity ratio colorectal cancer: GI50 sensitive DLD1 / GI50 MDR DLD1-TxR; for GI50: Homo sapiens, SRB assay, 48 h, colorectal cancer MDR, mean ± SEM
# Description: Two distinct pairs of counterpart drug-sensitive and MDR human tumor cell lines were used, namely the non-small lung cancer (NSCLC) NCI-H460 (same cell line as in the NCI screen) and its MDR counterpart cell line NCI-H460/R and the colorectal cancer DLD1 and its MDR counterpart cell line DLD1-TxR (Table 3). The screening was performed using the SRB assay, and the GI50 for each compound was determined by interpolation on the attained concentration−response curves and compared with NCI60 screening data (SI, Figures S62−S63; Table S21).
# as §2, §3
# [4] = tested on: NCI-H460; assay: NCI60 five-dose GI50 (NCI data); format: cell-based; settings: Homo sapiens, NCI data provided for comparison, read-out: NSCLC NCI-H460 GI50 (NCI)
# Excerpt: The concentration−response curve generated enables the determination of three criteria, GI50 (drug concentration at which 50% of cell growth is inhibited), total growth inhibition (TGI) and LC50 (drug concentration at which 50% of tumor cells are killed) which can be used to compare effectiveness against any compound tested in the screen since its inception.
# S2.1 NCI Screening Assay Experimental details
# NCI Screening Assay Experimental: Cancer cell growth assays (NCI60 screening) 5,6 One-dose study: Tested compounds were initially solubilised in DMSO, diluted into RPMI 1640 and 5% fetal bovine serum/L-glutamine, and added to 96-well plates containing cell lines previously cultured for 24 h. After 48 h incubation, the media were removed, and the cells were fixed and stained with sulforhodamine B to determine overall percent growth/ total protein content. Unbound dye was removed with five washes of 1% acetic acid, and the plates were allowed to air dry. The dye was then resolubilised in Tris buffer, and the colorimetric absorbance was measured (515 nm). Growth inhibition was measured relative to the response generated from proliferating cells cultured under identical conditions for 48 h. Data from one-dose experiments pertains to the percentage growth at […]
# Five-dose study: Serial 5 × 10-fold dilution from an initial DMSO stock solution was performed, prior to incubation at each individual concentration (10 nM, 100 nM, 1 μM, 10 μM and 100 μM). Using seven absorbance measurements (time zero (Tz), control growth (C), and test growth in the presence of drug at the five concentration levels (Ti)), the percentage growth was calculated at each of the drug concentrations levels. Percentage growth inhibition was calculated as: [(Ti − Tz)/(C − Tz)] × 100 for concentrations for which Ti ≥ Tz, [(Ti − Tz)/Tz] × 100 for concentrations for which Ti < Tz. Three dose response parameters were calculated for each experimental agent. […]
# was calculated from [(Ti − Tz)/(C − Tz)] × 100 = 50, which is the drug concentration resulting in a 50% reduction in the net protein increase (as measured by sulforhodamine B staining) in control cells during the drug incubation. The drug concentration resulting in total growth inhibition (TGI) was calculated from Ti = Tz. The LC50 (concentration of drug resulting in a 50% reduction in the measured protein at the end of the drug treatment as compared to that at the beginning) indicating a net loss of cells following treatment was calculated from [(Ti − Tz)/Tz] × 100 = −50. Values were calculated for each of these three parameters if the level of activity was reached; however, if the effect was not reached or was exceeded, the value for that parameter was expressed as greater or less than the maximum or minimum concentration tested.
# [5] = tested on: NCI-ADR/RES; parameters: method as in PMID 31894828; settings: MDR cell line, high P-gp; read-out: growth inhibition (GI50) NCI/ADR-RES; cited from earlier work
# [6] = tested on: NCI-H460/R; assay: SRB cell growth inhibition assay; format: cell-based, human; settings: for selectivity ratio NSCLC: GI50 sensitive NCI-H460 / GI50 MDR NCI-H460/R; for GI50: Homo sapiens, NCI-H460, SRB assay, 48 h, NSCLC MDR, mean ± SEM
# Description: Two distinct pairs of counterpart drug-sensitive and MDR human tumor cell lines were used, namely the non-small lung cancer (NSCLC) NCI-H460 (same cell line as in the NCI screen) and its MDR counterpart cell line NCI-[…] and the colorectal cancer DLD1 and its MDR counterpart cell line DLD1-TxR (Table 3). The screening was performed using the SRB assay, and the GI50 for each compound was determined by interpolation on the attained concentration-response curves and compared with NCI60 screening data (SI, Figures S62-S63; Table S21). Two pairs of drug-sensitive and multidrug-resistant (MDR) cell lines from human nonsmall cell lung cancer (NSCLC), NCI-H460 and NCI-[…], and colorectal cancer, DLD1 and DLD1-TxR, kindly provided by Dr M. […] The A549 cell line was maintained in Dulbecco's Modified Eagle Medium (DMEM) supplemented with 4.5 g/L Glucose with UltraGlutamine with sodium pyruvate (Lonza, Basel Stücki, Switzerland), enriched with 10% fetal bovine serum (FBS; Biowest, Nuaillé, France). […] For the sulforhodamine B (SRB) and 3D cell culture assays, the media were supplemented with 5% FBS. The remaining experiments were performed with medium supplemented with 10% FBS. […] The SRB assay was performed as previously described.[78],[79] Briefly, after fixing cells with 10% (w/v) ice-cold trichloroacetic acid (Merck Life Science), the proteins were stained with 0.4% of SRB (Merck Life Science) in acetic acid (Merck Life Science). Following washing steps in acetic acid, the bound dye was solubilized with 10 mM Tris base solution (Merck Life Science). Absorbance was measured at 510 nm in a multiplate reader (Synergy Mx, Biotek Instruments Inc., Winooski, Vermont, USA) using the Gen5 software (Biotek Instruments Inc.).
# [7] = tested on: NCI60 tumor cell line panel; parameters: method as in PMID 31894828; settings: against 53 human tumor cell lines; cited from earlier work
# [8] = tested on: NCI-H460/R spheroids; assay: Cell Titer-Glo 3D spheroid viability assay; format: cell-based, human; settings: 48 h; 25 at 0.35 and 0.7 μM; etoposide 2 μM
# Description: Results are presented as the % of luciferase luminescence relative to the “blank” cells (medium).
# Spheroid formation was conducted in 12-series agarose 3D Petri Dish micromolds (MicroTissues Technology, MicroTissues Inc., Sigma-Aldrich). The agarose micromolds were prepared using 1% agarose in a 0.9% NaCl solution and then placed in 12-well plates and equilibrated with RPMI supplemented with 10% FBS for at least 2 h before cell seeding. Cell suspensions corresponding to 500 cells per spheroid of the NSCLC cell lines (NCI-H460 and NCI-H460/R), and 1000 cells per spheroid of the colorectal cancer cell lines (DLD1 and DLD1-TxR) were seeded in the corresponding micromolds. […] Spheroid formation was monitored with the Leica DMi1 microscope. […] At the end of the treatment, images from at least 8 different spheroids per condition were captured on the Leica Dmi1 microscope, and posteriorly analyzed with the automated open-source software AnaSP.[82] Spheroid parameters, such as equivalent diameter, circularity, and compactness, were calculated.
# Spheroid viability was determined through the luminescence-based Cell Titer-Glo 3D cell viability assay (Promega). […] The plate was then incubated in the dark for 5 min with agitation and allowed to rest for 25 min before luminescence measurement. Luminescence was quantified using the microplate reader Synergy MX coupled with the GEN5 software. […]
GI50 [1],GI50 [2],GI50 [3],GI50 [6],SMILES,selectivity ratio colorectal cancer [3],GI50 [4],GI50 [5],selectivity ratio NSCLC [6],GI50 [7],viability of NCI-H460/R spheroids [8]
3.06 ± 0.15 µM,4.89 ± 0.51 µM,2.97 ± 0.13 µM,2.29 ± 0.28 µM,COC(=O)c1c2c(c(C)[n+]([O-])c1C)C(=O)C(NCc1ccccc1)=CC2=O [Compound 1],1.7,2.72 µM,2.67 µM,1.3,2.52 µM,–
8.43 ± 1.41 µM,6.62 ± 0.35 µM,4.8 ± 0.07 µM,4.28 ± 1.08 µM,COC(=O)c1c2c(c(C)[n+]([O-])c1C)C(=O)C=CC2=O [Compound 3],1.4,0.731 µM,–,2,1.75 µM,–
–,–,–,–,"COc1cc([C@@H]2c3cc4c(cc3[C@@H](O[C@@H]3O[C@@H]5CO[C@@H](C)O[C@H]5[C@H](O)[C@H]3O)[C@H]3COC(=O)[C@H]23)OCO4)cc(OC)c1O [etoposide, reference compound]",–,–,–,–,–,did not significantly affect the viability of the spheroids
–,0.02 ± 0.003 µM,0.97 ± 0.21 µM,–,"CC(=O)O[C@H]1C(=O)[C@@]2(C)[C@H]([C@H](OC(=O)c3ccccc3)[C@]3(O)C[C@H](OC(=O)[C@H](O)[C@@H](NC(=O)c4ccccc4)c4ccccc4)C(C)=C1C3(C)C)[C@]1(OC(C)=O)CO[C@@H]1C[C@@H]2O [paclitaxel, reference compound]",–,–,–,–,–,–
